Measured values taken from patent US5270047A, “Local delivery of dipyridamole for the treatment of proliferative diseases” (priority 1991, dated 1993).
“Also recorded” adds a separate entry of the source.

Columns and labels:
Balb/c3T3 fibroblasts = assay: Inhibition of fibroblast growth (Coulter cell counting); type: cell-based
Description: Cells were then transferred to above medium containing indicated concentrations of dipyridamole. After three days cell growth was determined by counting using a ZM Coulter counter (Coulter Diagnostic, Inc.).

[1] = tested on: Smooth muscle cells from rabbit aorta; assay: Inhibition of DNA synthesis (3H thymidine incorporation) induced by PDGF, FGF or EGF; type: cell-based; conditions: for inhibition at 0.08 µg/mL / inhibition at 0.15 µg/mL / inhibition at 0.32 µg/mL / inhibition at 0.64 µg/mL / inhibition at 1.2 µg/mL / inhibition at 2.5 µg/mL: Oryctolagus cuniculus, Platelet, 24 h, 1% platelet poor plasma; for inhibition at 0.08 µg/mL: dipyridamole 0.08 μg/ml; for inhibition at 0.15 µg/mL: dipyridamole 0.15 μg/ml; for inhibition at 0.32 µg/mL: dipyridamole 0.32 μg/ml; for inhibition at 0.64 µg/mL: dipyridamole 0.64 μg/ml; for inhibition at 1.2 µg/mL: dipyridamole 1.2 μg/ml; for inhibition at 2.5 µg/mL: dipyridamole 2.5 μg/ml
Description: Dipyridamole inhibits smooth muscle cell proliferation induced by multiple growth factors. Smooth muscle cells from rabbit aorta (derived by explant method) were seeded in 96 well tissue culture plates in DMEM containing 10% fetal bovine serum, 2 mM L-glutamine, 100 U/ml penicillin and 100 μg/ml streptomycin. Growth arrested, confluent cultures in 96 well microtiter plates were incubated in medium containing 1% platelet poor plasma, 2 mM L-glutanime, 100 U/ml penicillin, 100 μg/ml streptomycin, 20 ng/ml PDGF, 3 ng/ml EGF (Genzyme), 3 ng/ml FGF (Genzyme), 1 μci/ml ^3 H thymidine and indicated concentrations of dipyridamole. Cells were incubated at 37° C. for 24 hours under 5% CO2 /95% air. At the end of 24 hours, cells were fixed in methanol. DNA synthesis was determined by ^3 H thymidine incorporation as previously described.

vascular restenosis = conditions: systemic administration; patients; cited from earlier work
[2] = tested on: balloon-injured left common carotid arteries; assay: Effect of local adventitial dipyridamole upon intimal thickening after balloon injury of the left common carotid artery; type: in vivo, male Sprague-Dawley rats; conditions: 600 μg/day, fourteen days
Description: Balloon injury to the left common carotid arteries of male Sprague-Dawley rats (350-400 g) was accomplished by three passes of an inflated 2F Fogarty balloon catheter as described by Clowes et al., Lab Invest. 49:208-215 (1983). Animals were anesthetized with Ketamine (80 mg/kg, intramuscular) and Rompun (16 mg/kg, intramuscular). Entry of the balloon catheter to the left common carotid artery was made via a nick in the external carotid artery, which was tied off at the end of the surgical procedure. Continuous local delivery of dipyridamole was accomplished by means of a minosmotic pump implanted subcutaneously in the back of the rat. […]
Fourteen days post surgery, animals were anesthetized (vide supra) and perfused through the abdominal aorta in a retrograde manner at physiological pressure with a zinc formalin fixative (Anatech LTD., Battle Creek, Mich.). […] Three adjacent cross sections (5 μm thick) of each vessel were cut, stained with hematoxylin and eosin, and cross-sectional intimal areas quantitated with an image analyzer (Quantimet 970, Cambridge Inst., Cambridge, UK).
The difference between intimal areas of drug-treated vs. control groups were analyzed for statistical significance using Student's t-test as described in Tallarida et al., Manual of Pharmacologic Calculations with Computer Programs, Springer-Verlag, New York, 1981, p. […]

[3] = tested on: balloon-injured rat carotid arteries; assay: Effect of systemic (dietary) dipyridamole upon intimal thickening after balloon injury of the left common carotid artery; type: in vivo, male Sprague-Dawley rats; conditions: two weeks; for Area of Intimal Thickening: control 0.120 ± 0.014
Description: Balloon injury to the left common carotid arteries of male Sprague-Dawley rats (350-400 g) was accomplished by three passes of an inflated 2F Fogarty balloon catheter (Baxter Healthcare, McGaw Park, Ill.) as described by Clowes et al., Lab Invest. 49:208-215 (1983). Animals were anesthetized with Ketamine (80 mg/kg, intramuscular, Aveco, Ft. Dodge, Iowa) and Rompun (16 mg/kg, intramuscular, Mobay Corp., Shawnee, Kans.). Entry of the balloon catheter to the left common carotid artery was made via a nick in the external carotid artery, which was tied off at the end of the surgical procedure. Dipyridamole was systemically administered for two weeks (0.03 and 0.10% wt/wt, as an admixture in the diet, equivalent to approximately 30 and 100 mg/kg/day, respectively).

[4] = 0.03% in diet wt/wt (approximately 30 mg/kg/day)
[5] = 0.10% in diet wt/wt (approximately 100 mg/kg/day)

In the case of `OCCN(CCO)c1nc(N2CCCCC2)c2nc(N(CCO)CCO)nc(N3CCCCC3)c2n1` [Dipyridamole, 2,6-bis(diethanolamino)-4,8-dipiperidinopyrimido[5,4-d]pyrimidine], the inhibition at 1 µg/mL (Balb/c3T3 fibroblasts; Mus musculus, BALB/c3T3, 72 h, dipyridamole 1.0 μg/ml, three days, 5% fetal bovine serum) is reported as 0%, the inhibition at 5 µg/mL (Balb/c3T3 fibroblasts; Mus musculus, BALB/c3T3, 72 h, dipyridamole 5.0 μg/ml, three days, 5% fetal bovine serum) is reported as 55% and the inhibition at 10 µg/mL (Balb/c3T3 fibroblasts; Mus musculus, BALB/c3T3, 72 h, dipyridamole 10 μg/ml, three days, 5% fetal bovine serum) is reported as 72%. The inhibition at 20 µg/mL (Balb/c3T3 fibroblasts; Mus musculus, BALB/c3T3, 72 h, dipyridamole 20 μg/ml, three days, 5% fetal bovine serum) was 86%, the inhibition at 40 µg/mL (Balb/c3T3 fibroblasts; Mus musculus, BALB/c3T3, 72 h, dipyridamole 40 μg/ml, three days, 5% fetal bovine serum) was 95% and the “inhibition of proliferation of cells of mesenchyme origin” value (Balb/c3T3 fibroblasts; fibroblasts) was “inhibits proliferation of cells of mesenchyme origin”. It also gave an inhibition at 0.08 µg/mL ([1]; EGF (3 ng/ml)) of 68%, an inhibition at 0.15 µg/mL ([1]; EGF (3 ng/ml)) of 76% and an inhibition at 0.32 µg/mL ([1]; EGF (3 ng/ml)) of 85%. It also gave an inhibition at 0.64 µg/mL ([1]; EGF (3 ng/ml)) of 90%, an inhibition at 1.2 µg/mL ([1]; EGF (3 ng/ml)) of 94% and an inhibition at 2.5 µg/mL ([1]; EGF (3 ng/ml)) of 96%. The inhibition at 0.08 µg/mL ([1]; FGF (3 ng/ml)) was 67%, the inhibition at 0.15 µg/mL ([1]; FGF (3 ng/ml)) was 74% and the inhibition at 0.32 µg/mL ([1]; FGF (3 ng/ml)) was 80%. For the same compound, the inhibition at 0.64 µg/mL ([1]; FGF (3 ng/ml)) was 87%, the inhibition at 1.2 µg/mL ([1]; FGF (3 ng/ml)) was 92% and the inhibition at 2.5 µg/mL ([1]; FGF (3 ng/ml)) was 93%. It also gave an inhibition at 0.08 µg/mL ([1]; PDGF (20 ng/ml)) of 64%, an inhibition at 0.15 µg/mL ([1]; PDGF (20 ng/ml)) of 71% and an inhibition at 0.32 µg/mL ([1]; PDGF (20 ng/ml)) of 82%. The inhibition at 0.64 µg/mL ([1]; PDGF (20 ng/ml)) was 89%, the inhibition at 1.2 µg/mL ([1]; PDGF (20 ng/ml)) was 93% and the inhibition at 2.5 µg/mL ([1]; PDGF (20 ng/ml)) was 96%. The “inhibition of smooth muscle cell proliferation induced by growth factors” value ([1]; PDGF, FGF, and EGF) was “inhibits cell proliferation induced by PDGF, FGF, and EGF”, the “effect in treating or preventing vascular restenosis” value (vascular restenosis) was “ineffective; also recorded: ineffective in treating or preventing vascular restenosis in patients” and the “Area of Intimal Thickening (% of control)” value (“Area … (% of control)” below) ([2]; P < 0.05 vs. control) was 67.4 % of control. For the same compound, the “Area of Intimal Thickening” value ([2]; vehicle 0.129 ± 0.013, P < 0.05 vs. control) was 0.087 ± 0.011 mm^2, the “Area … (% of control)” value [3, 4] was 97.6 % of control and the “Area of Intimal Thickening” value [3, 4] was 0.116 ± 0.017 mm^2. The “effect upon intimal thickening in the balloon-injured rat carotid arteries” value ([3]; 0.03 and 0.10% wt/wt in the diet) was “No significant effect upon intimal thickening”, the “Area … (% of control)” value [3, 5] was 90.8 % of control and the “Area of Intimal Thickening” value [3, 5] was 0.109 ± 0.014 mm^2.
